From patent US10800760B2, “Trk inhibition” (NantBio, Inc., priority 2017, dated 2020)

molecular target: T1, TrkA(h) (Homo sapiens, UniProt P04629); test: KinaseProfiler (Millipore) radiometric kinase assay, TrkA(h); assay type: biochemical; conditions: compound concentration 1 μM
T1 construct: purchased Millipore (KinaseProfiler Service)
Experimental: The KinaseProfiler™ Service Assay Protocols (Millipore) were used to test the kinase inhibiting activity of the novel compounds from this invention. To do this, the buffer composition was as follows: 20 mM MOPS, 1 mM EDTA, 0.01% Brij-35, 5% Glycerol, 0.1% β-mercaptoethanol, 1 mg/mL BSA. Test compounds were initially dissolved in DMSO at the desired concentration, then serially diluted into the kinase assay buffer. In a final reaction volume of 25 μL, TrkA(h) (5-10 mU) is incubated with 8 mM MOPS pH 7.0, 0.2 mM EDTA, 200 μM LRRASLG (Kemptide), 10 mM MgAcetate and [γ^33P-ATP]. The reaction was initiated by the addition of the MgATP mix. After incubation for 40 minutes at room temperature, the reaction was stopped by addition of 5 μL of a 3% phosphoric acid solution. 10 μL of the reaction was then spotted onto a P30 filtermat and washed three times for 5 minutes in 50 mM phosphoric acid and once in methanol prior to drying and scintillation counting. Wells containing substrate but no kinase and wells containing a phosphopeptide control were used to set 0% and 100% phosphorylation value, respectively.

T1 sequence (P04629 33-796): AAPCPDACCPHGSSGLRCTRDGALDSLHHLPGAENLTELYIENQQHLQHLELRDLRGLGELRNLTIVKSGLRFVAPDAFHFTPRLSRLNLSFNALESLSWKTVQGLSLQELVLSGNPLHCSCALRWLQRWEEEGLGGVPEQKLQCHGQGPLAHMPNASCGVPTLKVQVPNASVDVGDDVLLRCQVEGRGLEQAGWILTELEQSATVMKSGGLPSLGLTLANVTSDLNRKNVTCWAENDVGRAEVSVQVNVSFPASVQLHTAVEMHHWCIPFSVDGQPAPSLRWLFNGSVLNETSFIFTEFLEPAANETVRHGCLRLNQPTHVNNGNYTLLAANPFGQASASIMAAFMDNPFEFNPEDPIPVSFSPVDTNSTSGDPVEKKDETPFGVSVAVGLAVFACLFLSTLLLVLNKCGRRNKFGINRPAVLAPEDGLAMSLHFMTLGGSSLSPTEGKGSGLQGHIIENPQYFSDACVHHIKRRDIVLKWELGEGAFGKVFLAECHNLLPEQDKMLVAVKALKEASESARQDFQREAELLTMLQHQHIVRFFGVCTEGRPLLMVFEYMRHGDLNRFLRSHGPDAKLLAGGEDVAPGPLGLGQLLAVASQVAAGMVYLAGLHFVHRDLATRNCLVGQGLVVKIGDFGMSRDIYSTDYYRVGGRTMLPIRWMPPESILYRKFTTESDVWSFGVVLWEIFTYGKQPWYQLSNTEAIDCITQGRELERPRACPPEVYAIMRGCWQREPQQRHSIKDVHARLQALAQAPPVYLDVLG

Compound	inhibition at 1 µM [%]	% Inhibition@ 1 μM (TrkA(h)) [%]
C[C@H](Nc1ncnc(Nc2cc(C3CC3)[nH]n2)c1C#N)c1ccc(F)cc1 [Example 26]	49	
c1ccc(C(CN2CCOCC2)Nc2cc(Nc3cc(C4CC4)[nH]n3)ncn2)cc1 (stereo not drawn) [Example 38]	71	
CC(Nc1cc(Nc2cc(C3CC3)[nH]n2)ncn1)c1c(F)cccc1F (single isomer, unassigned) [Example 30]	100	
CC(Nc1cc(Nc2cc(C3CC3)[nH]n2)ncn1)c1cc(F)ccc1F (stereo not drawn) [Example 35]	99	
C[C@H](Nc1ncnc(Nc2cc(C3CC3)[nH]n2)c1Cl)c1ccc(F)cc1 [Example 28, (S)-5-chloro-N4-(5-cyclopropyl-1H-pyrazol-3-yl)-N6-(1-(4-fluorophenyl)ethyl)pyrimidine-4,6-diamine]	56	
CC(Nc1cc(Nc2cc(C3CC3)[nH]n2)ncn1)c1ccc(F)cc1F (stereo not drawn) [Example 32, N4-(5-cyclopropyl-1H-pyrazol-3-yl)-N6-(1-(2,4-difluorophenyl)ethyl)pyrimidine-4,6-diamine]	104	
Cc1c(Nc2cc(C3CC3)[nH]n2)ncnc1N[C@@H](C)c1ccc(F)cc1 [Example 24]	31	
C[C@@H](Nc1cc(Nc2cc(C3CC3)[nH]n2)ncn1)c1ccc(F)cc1F [Example 33]	60	
CC(Nc1cc(Nc2cc(C3CC3)[nH]n2)ncn1)c1ccc(F)c(Cl)c1 (stereo not drawn) [Example 37]	97	
CC(Nc1cc(Nc2cc(C3CC3)[nH]n2)ncn1)c1ccc(F)cc1Cl (stereo not drawn) [Example 36]	101	
C[C@H](Nc1cc(Nc2cc(C3CC3)[nH]n2)ncn1)c1ccc(F)cc1 [Example 23, (S)—N4-(5-cyclopropyl-1H-pyrazol-3-yl)-N6-(1-(4-fluorophenyl)ethyl)pyrimidine-4,6-diamine]	99	
C[C@H](Nc1ncnc(Nc2cc(C3CC3)[nH]n2)c1F)c1ccc(F)cc1 [Example 27]	87	
CC(Nc1cc(Nc2cc(C3CC3)n(C(=O)OC(C)(C)C)n2)ncn1)c1c(F)cccc1F (stereo not drawn) [Example 31]	99	
CN1CCN(c2ccc(CNc3ncnc(Nc4cc(C5CC5)[nH]n4)c3C#N)cc2)CC1 [Example 29]	-5	
C[C@H](Nc1cc(Nc2cc(C3CC3)[nH]n2)ncn1)c1ccc(F)cc1F [Example 34]	101	
COc1c(Nc2cc(C3CC3)[nH]n2)ncnc1N[C@@H](C)c1ccc(F)cc1 [Example 25, (S)—N4-(5-cyclopropyl-1H-pyrazol-3-yl)-N6-(1-(4-fluorophenyl)ethyl)-5-methoxypyrimidine-4,6-diamine]	0	

Results, then the molecule that gave them:

inhibition at 1 µM [%]	% Inhibition@ 1 μM (TrkA(h)) [%]	Compound
95		CC(Nc1cc(Nc2cc(C3CC3)[nH]n2)ncn1)c1ccc(F)cn1 (stereo not drawn) [Example 43, N4-(5-cyclopropyl-1H-pyrazol-3-yl)-N6-(1-(5-fluoropyridin-2-yl)ethyl)pyrimidine-4,6-diamine]
	98	CC(Nc1cc(Nc2cc(C3CC3)[nH]n2)ncn1)c1ccc(F)cn1 (stereo not drawn) [Example 46, N4-(5-cyclopropyl-1H-pyrazol-3-yl)-N6-(1-(5-fluoropyridin-2-yl)ethyl)pyrimidine-4,6-diamine]
25		CC(Nc1cc(Nc2cc(C3CC3)n(C)n2)ncn1)c1ccc(F)cc1F (stereo not drawn) [Example 47]
	100	CC(Nc1cc(Nc2cc(C3CC3)[nH]n2)ncn1)c1ccc(F)cn1 (stereo not drawn) [Example 45, N4-(5-cyclopropyl-1H-pyrazol-3-yl)-N6-(1-(5-fluoropyridin-2-yl)ethyl)pyrimidine-4,6-diamine]
67		CN(C)CC(Nc1cc(Nc2cc(C3CC3)[nH]n2)ncn1)c1ccccc1 (stereo not drawn) [Example 56]
99		Cc1cc(Nc2cc(NC(C)c3ccc(F)cc3F)ncn2)n[nH]1 (stereo not drawn) [Example 50]
100		CCCc1cc(Nc2cc(NC(C)c3ccc(F)cc3F)ncn2)n[nH]1 (stereo not drawn) [Example 51]
	101	CC(Nc1cc(Nc2cc(C3CC3)[nH]n2)ncn1)c1ccc(F)cn1 (stereo not drawn) [Example 52, N4-(5-cyclopropyl-1H-pyrazol-3-yl)-N6-(1-(5-fluoropyridin-2-yl)ethyl)pyrimidine-4,6-diamine]
	95	CC(Nc1cc(Nc2cc(C3CC3)[nH]n2)ncn1)c1ccc(F)cn1 (stereo not drawn) [Example 57, N4-(5-cyclopropyl-1H-pyrazol-3-yl)-N6-(1-(5-fluoropyridin-2-yl)ethyl)pyrimidine-4,6-diamine]
101		OCC(Nc1cc(Nc2cc(C3CC3)[nH]n2)ncn1)c1ccc(F)cc1 (stereo not drawn) [Example 40]
85		COCC(Nc1cc(Nc2cc(C3CC3)[nH]n2)ncn1)c1ccccc1 (stereo not drawn) [Example 55]
100		C[C@H](Nc1ncnc(Nc2cc(C3CC3)[nH]n2)n1)c1ccc(F)cc1Cl [Example 59]
5		CC(Nc1cc(Nc2ccn(C3CCOCC3)n2)ncn1)c1ccc(F)cc1F (stereo not drawn) [Example 49]
100		C[C@H](Nc1ncnc(Nc2cc(C3CC3)[nH]n2)n1)c1ccc(F)cc1F [Example 58]
	98	CC(Nc1cc(Nc2cc(C3CC3)[nH]n2)ncn1)c1ccc(F)cn1 (stereo not drawn) [Example 44, N4-(5-cyclopropyl-1H-pyrazol-3-yl)-N6-(1-(5-fluoropyridin-2-yl)ethyl)pyrimidine-4,6-diamine]
95		CC(c1cc(F)ccc1F)N(C)c1cc(Nc2cc(C3CC3)[nH]n2)ncn1 (stereo not drawn) [Example 42]
100		C[C@H](Nc1cc(Nc2cc(C3CC3)[nH]n2)nc(N)n1)c1ccc(F)cc1F [Example 53]
10		CCn1nc(Nc2cc(NC(C)c3ccc(F)cc3F)ncn2)cc1C1CC1 (stereo not drawn) [Example 48]
7		CN1CCN(CC(Nc2cc(Nc3cc(C4CC4)[nH]n3)ncn2)c2ccccc2)CC1 (stereo not drawn) [Example 39]
100		C[C@H](Nc1cc(Nc2cc(C3CC3)[nH]n2)ncn1)c1ccc(F)cc1Cl [Example 54]
